# Results reported in ChEMBL document CHEMBL4184336, “Structure-Guided Modification of Heterocyclic Antagonists of the P2Y14 Receptor” (J Med Chem, 2018).
# Columns and labels:
# P2Y purinoceptor 14 = target: T1, P2Y purinoceptor 14 (Homo sapiens, UniProt Q15391)
# T1 sequence (Q15391 whole entry): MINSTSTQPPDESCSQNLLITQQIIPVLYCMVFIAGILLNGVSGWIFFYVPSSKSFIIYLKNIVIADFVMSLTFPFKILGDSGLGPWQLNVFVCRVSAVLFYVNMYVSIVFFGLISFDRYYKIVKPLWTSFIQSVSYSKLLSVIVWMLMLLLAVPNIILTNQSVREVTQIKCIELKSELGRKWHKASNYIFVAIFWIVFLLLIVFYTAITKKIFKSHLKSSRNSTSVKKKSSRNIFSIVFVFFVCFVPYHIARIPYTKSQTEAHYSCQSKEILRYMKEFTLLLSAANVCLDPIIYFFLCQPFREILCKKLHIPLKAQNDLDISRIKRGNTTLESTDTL
# Description: Displacement of MRS4174 from human P2Y14R expressed in CHO cells preincubated for 30 mins followed by MRS4174 addition measured after 30 mins by flow cytometric method
# [1] = target: Delta-type opioid receptor (Homo sapiens, UniProt P41143); assay: Displacement of [3H]-DADLE from human delta opioid receptor expressed in HEK293 cells after 90 mins by scintillation counting method; assay type: cell-based
# Delta-type opioid receptor, sequence (P41143 whole entry): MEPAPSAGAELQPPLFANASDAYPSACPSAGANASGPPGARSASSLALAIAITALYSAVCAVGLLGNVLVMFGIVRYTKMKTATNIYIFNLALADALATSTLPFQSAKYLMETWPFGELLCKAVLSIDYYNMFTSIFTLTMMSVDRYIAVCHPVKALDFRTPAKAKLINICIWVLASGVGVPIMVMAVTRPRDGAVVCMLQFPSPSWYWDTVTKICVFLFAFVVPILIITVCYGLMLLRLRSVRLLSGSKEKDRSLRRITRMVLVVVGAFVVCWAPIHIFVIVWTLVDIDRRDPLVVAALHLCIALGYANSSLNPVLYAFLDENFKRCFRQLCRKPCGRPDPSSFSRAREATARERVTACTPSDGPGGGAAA
# [2] = Half life in Sprague-Dawley rat plasma at 0.5 mg/kg, iv; assay type: ADME, organism-based
# Cytochrome P450 1A2 = Cytochrome P450 1A2 (Homo sapiens, UniProt P05177); assay: Inhibition of CYP1A2 (unknown origin); assay type: ADME
# Cytochrome P450 1A2, sequence (P05177 whole entry): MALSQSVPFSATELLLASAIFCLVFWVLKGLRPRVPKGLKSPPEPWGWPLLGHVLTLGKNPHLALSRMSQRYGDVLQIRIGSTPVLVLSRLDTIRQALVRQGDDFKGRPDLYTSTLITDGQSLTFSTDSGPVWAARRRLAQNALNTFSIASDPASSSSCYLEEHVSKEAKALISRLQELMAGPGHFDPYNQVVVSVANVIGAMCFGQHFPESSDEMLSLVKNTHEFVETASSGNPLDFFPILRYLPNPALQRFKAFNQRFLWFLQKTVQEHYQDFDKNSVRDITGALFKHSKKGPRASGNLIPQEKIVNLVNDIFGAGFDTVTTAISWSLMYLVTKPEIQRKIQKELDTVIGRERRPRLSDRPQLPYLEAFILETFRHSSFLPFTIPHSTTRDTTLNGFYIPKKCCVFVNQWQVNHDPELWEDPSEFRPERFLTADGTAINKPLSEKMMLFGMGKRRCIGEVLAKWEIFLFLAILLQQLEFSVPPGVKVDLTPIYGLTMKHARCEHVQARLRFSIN
# Cytochrome P450 2C9 = Cytochrome P450 2C9 (Homo sapiens, UniProt P11712); assay: Inhibition of CYP2C9 (unknown origin); assay type: ADME
# Cytochrome P450 2C9, sequence (P11712 whole entry): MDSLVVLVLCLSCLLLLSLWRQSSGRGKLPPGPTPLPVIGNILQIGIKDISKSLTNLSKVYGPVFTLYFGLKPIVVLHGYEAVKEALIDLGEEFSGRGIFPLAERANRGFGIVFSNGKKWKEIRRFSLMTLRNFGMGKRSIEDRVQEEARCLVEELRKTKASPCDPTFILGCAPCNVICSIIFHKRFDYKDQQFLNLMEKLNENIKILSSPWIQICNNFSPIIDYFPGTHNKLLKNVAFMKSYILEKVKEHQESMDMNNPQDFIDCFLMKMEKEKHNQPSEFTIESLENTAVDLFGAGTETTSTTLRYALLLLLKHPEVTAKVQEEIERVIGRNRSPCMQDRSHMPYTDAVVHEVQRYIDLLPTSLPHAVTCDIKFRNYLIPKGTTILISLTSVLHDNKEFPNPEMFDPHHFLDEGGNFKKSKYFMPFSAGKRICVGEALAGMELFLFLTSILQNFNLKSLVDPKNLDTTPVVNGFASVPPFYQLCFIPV
# Cytochrome P450 2C19 = Cytochrome P450 2C19 (Homo sapiens, UniProt P33261); assay: Inhibition of CYP2C19 (unknown origin); assay type: ADME
# Cytochrome P450 2C19, sequence (P33261 whole entry): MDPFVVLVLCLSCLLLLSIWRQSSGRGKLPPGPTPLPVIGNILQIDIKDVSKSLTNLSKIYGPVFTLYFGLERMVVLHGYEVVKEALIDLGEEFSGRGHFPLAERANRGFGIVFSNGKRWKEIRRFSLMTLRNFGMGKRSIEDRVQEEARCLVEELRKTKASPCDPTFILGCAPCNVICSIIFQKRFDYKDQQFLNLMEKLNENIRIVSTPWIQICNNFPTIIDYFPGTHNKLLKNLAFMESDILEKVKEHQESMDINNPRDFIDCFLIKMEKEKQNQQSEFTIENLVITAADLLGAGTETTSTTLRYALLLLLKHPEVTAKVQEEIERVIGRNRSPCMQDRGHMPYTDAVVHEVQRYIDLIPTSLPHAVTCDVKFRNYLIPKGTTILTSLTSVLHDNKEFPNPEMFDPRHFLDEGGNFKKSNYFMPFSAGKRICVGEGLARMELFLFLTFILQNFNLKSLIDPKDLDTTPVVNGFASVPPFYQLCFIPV
# Cytochrome P450 2D6 = Cytochrome P450 2D6 (Homo sapiens, UniProt P10635); assay: Inhibition of CYP2D6 (unknown origin); assay type: ADME
# Cytochrome P450 2D6, sequence (P10635 whole entry): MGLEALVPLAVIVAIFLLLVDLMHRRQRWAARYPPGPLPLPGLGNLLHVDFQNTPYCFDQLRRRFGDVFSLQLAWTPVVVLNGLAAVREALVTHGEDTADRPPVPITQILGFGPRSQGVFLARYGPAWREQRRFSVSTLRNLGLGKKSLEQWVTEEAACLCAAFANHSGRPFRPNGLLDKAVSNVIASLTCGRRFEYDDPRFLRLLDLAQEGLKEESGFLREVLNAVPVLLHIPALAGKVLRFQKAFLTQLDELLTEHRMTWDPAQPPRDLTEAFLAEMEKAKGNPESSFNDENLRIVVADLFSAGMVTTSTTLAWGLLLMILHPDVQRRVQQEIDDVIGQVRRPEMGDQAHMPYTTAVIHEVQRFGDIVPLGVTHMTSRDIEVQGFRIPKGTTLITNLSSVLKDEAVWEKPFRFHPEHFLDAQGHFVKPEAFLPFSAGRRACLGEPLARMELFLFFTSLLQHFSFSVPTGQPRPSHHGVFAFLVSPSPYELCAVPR
# Cytochrome P450 3A4 = Cytochrome P450 3A4 (Homo sapiens, UniProt P08684); assay: Inhibition of CYP3A4 (unknown origin); assay type: ADME
# Cytochrome P450 3A4, sequence (P08684 whole entry): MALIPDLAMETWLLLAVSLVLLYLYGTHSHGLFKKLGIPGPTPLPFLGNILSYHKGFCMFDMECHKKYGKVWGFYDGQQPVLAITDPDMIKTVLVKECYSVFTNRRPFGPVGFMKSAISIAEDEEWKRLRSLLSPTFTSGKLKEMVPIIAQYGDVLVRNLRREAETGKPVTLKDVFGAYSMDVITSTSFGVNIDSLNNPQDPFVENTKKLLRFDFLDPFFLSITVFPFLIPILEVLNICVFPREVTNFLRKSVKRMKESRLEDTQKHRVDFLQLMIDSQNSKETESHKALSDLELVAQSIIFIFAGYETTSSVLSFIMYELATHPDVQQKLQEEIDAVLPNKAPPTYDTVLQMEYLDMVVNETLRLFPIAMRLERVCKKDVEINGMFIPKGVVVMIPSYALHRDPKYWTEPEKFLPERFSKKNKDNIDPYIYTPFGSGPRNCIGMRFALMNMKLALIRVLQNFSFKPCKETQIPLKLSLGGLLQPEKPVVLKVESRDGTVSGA
# [3] = Metabolic stability in human plasma assessed as parent compound remaining after 120 mins; assay type: ADME, cell-free; settings: read-out: Stability
# [4] = Metabolic stability in rat plasma assessed as parent compound remaining after 120 mins; assay type: ADME, cell-free; settings: read-out: Stability
# [5] = Metabolic stability in mouse plasma assessed as parent compound remaining after 120 mins; assay type: ADME, cell-free; settings: read-out: Stability
# HepG2 = assay: Cytotoxicity against human HepG2 cells; assay type: cell-based
# [6] = Aqueous solubility of the compound; assay type: physicochemical; settings: buffer
# [7] = target: Voltage-gated inwardly rectifying potassium channel KCNH2 (Homo sapiens, UniProt Q12809); assay: Inhibition of human ERG
# Voltage-gated inwardly rectifying potassium channel KCNH2, sequence (Q12809 whole entry): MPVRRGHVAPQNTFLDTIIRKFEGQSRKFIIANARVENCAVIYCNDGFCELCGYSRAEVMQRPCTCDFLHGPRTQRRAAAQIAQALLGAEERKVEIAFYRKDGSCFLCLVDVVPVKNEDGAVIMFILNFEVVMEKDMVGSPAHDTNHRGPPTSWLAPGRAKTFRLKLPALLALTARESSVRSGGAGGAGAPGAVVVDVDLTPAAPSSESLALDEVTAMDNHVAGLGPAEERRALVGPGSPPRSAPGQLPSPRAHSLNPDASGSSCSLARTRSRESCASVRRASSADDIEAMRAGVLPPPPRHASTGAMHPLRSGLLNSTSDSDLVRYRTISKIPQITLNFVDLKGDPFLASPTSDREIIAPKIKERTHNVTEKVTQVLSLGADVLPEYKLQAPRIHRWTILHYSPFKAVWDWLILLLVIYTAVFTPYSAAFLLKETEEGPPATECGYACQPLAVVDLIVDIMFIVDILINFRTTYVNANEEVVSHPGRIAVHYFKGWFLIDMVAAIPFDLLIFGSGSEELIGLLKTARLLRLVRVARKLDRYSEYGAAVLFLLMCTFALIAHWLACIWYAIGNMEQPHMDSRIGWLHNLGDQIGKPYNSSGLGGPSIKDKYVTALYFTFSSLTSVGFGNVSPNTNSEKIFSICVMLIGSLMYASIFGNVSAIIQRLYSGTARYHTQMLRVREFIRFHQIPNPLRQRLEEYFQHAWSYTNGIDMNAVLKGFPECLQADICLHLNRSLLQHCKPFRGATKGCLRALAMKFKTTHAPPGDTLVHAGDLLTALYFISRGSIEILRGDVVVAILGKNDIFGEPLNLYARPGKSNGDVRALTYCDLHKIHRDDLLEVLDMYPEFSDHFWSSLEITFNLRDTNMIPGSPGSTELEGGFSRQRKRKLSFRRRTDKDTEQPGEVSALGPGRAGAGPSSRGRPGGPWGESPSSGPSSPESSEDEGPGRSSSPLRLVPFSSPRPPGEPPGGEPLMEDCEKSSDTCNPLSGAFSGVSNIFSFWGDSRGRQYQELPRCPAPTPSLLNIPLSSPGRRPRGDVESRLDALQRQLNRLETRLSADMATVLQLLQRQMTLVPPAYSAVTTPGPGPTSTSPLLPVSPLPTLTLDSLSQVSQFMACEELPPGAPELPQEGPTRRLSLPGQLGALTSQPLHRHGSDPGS
SMILES,IC50 (P2Y purinoceptor 14) [nM],further results
CC(C)(C)OC(=O)NCCCNS(=O)(=O)c1ccc(-c2cc(C(=O)O)cc(-n3cc(-c4ccc(C(F)(F)F)cc4)nn3)c2)s1,9330,
CC(C)(C)NC(=O)c1ccc(-c2cc(C(=O)O)cc(-n3cc(-c4ccc(C(F)(F)F)cc4)nn3)c2)cc1,7530,
CC(C)(C)NC(=O)c1ccc(-c2cc(-c3nnn[nH]3)cc(-n3cc(-c4ccc(C(F)(F)F)cc4)nn3)c2)cc1,20700,
NCCCNC(=O)c1ccc(-c2cc(-c3nnn[nH]3)cc(-n3cc(-c4ccc(C(F)(F)F)cc4)nn3)c2)s1,1190,
NS(=O)(=O)c1ccc(-c2cc(C(=O)O)cc(-n3cc(-c4ccc(C(F)(F)F)cc4)nn3)c2)s1,6440,
FC(F)(F)c1ccc(-c2cn(-c3cc(Br)cc(-c4nnn[nH]4)c3)nn2)cc1,33100,
NCCCCNS(=O)(=O)c1ccc(-c2cc(C(=O)O)cc(-n3cc(-c4ccc(C(F)(F)F)cc4)nn3)c2)s1,2180,
FC(F)(F)c1ccc(-c2cn(-c3cc(-c4ccc(C5CCNCC5)cc4)cc(-c4nnn[nH]4)c3)nn2)cc1,958,
NCCCNC(=O)c1cc(-c2cc(C(=O)O)cc(-n3cc(-c4ccc(C(F)(F)F)cc4)nn3)c2)cs1,1750,
CCCNC(=O)c1ccc(-c2cc(C(=O)O)cc(-n3cc(-c4ccc(C(F)(F)F)cc4)nn3)c2)cc1,1490,
CCN(CC)CC.NC(=O)c1ccc(-c2cc(C(=O)O)cc(-n3cc(-c4ccc(C(F)(F)F)cc4)nn3)c2)cc1,269,Ki [1]: 1470 nM; half-life [2]: 12 min; IC50 (Cytochrome P450 1A2): ≥ 30000 nM; IC50 (Cytochrome P450 2C9): ≥ 30000 nM; IC50 (Cytochrome P450 2C19): ≥ 30000 nM; IC50 (Cytochrome P450 2D6): ≥ 30000 nM; IC50 (Cytochrome P450 3A4): ≥ 30000 nM; remaining at 2 h [3]: 94 to 100%; remaining at 2 h [4]: 94 to 100%; remaining at 2 h [5]: 94 to 100%; CC50 (HepG2): > 30000 nM; solubility [6]: 138 µg/mL; IC50 [7]: 166 nM
CC(C)(C)OC(=O)NCCNS(=O)(=O)c1ccc(-c2cc(C(=O)O)cc(-n3cc(-c4ccc(C(F)(F)F)cc4)nn3)c2)s1,5920,
C#CCCCCN1CCC(c2ccc(-c3cc(C(=O)O)cc4cc(-c5ccc(C(F)(F)F)cc5)ccc34)cc2)CC1,763,
CC(C)(C)OC(=O)N1CCN(S(=O)(=O)c2ccc(-c3cc(C(=O)O)cc(-n4cc(-c5ccc(C(F)(F)F)cc5)nn4)c3)cc2)CC1,> 50000,
CNC(=O)c1ccc(-c2cc(C(=O)O)cc(-n3cc(-c4ccc(C(F)(F)F)cc4)nn3)c2)cc1,563,
CC(C)(C)OC(=O)N1CCN(S(=O)(=O)c2ccc(-c3cc(C(=O)O)cc(-n4cc(-c5ccc(C(F)(F)F)cc5)nn4)c3)s2)CC1,54700,
NC(=O)c1ccc(-c2cc(C(=O)O)cc(-n3cc(-c4ccc(C(F)(F)F)cc4)nn3)c2)nc1,516,
NCCNS(=O)(=O)c1ccc(-c2cc(C(=O)O)cc(-n3cc(-c4ccc(C(F)(F)F)cc4)nn3)c2)s1,2260,
O=C(O)c1cc(-c2ccc(S(=O)(=O)N3CCNCC3)s2)cc(-n2cc(-c3ccc(C(F)(F)F)cc3)nn2)c1,1510,
NCCCNS(=O)(=O)c1ccc(-c2cc(C(=O)O)cc(-n3cc(-c4ccc(C(F)(F)F)cc4)nn3)c2)s1,756,
CC(C)(C)OC(=O)NCCCCNS(=O)(=O)c1ccc(-c2cc(C(=O)O)cc(-n3cc(-c4ccc(C(F)(F)F)cc4)nn3)c2)s1,13600,
